The nature of data set [1]: Mouse PK Analysis (plasma LC/MS/MS, noncompartmental PK parameters). On the set-up: AUC(0-t): concentration or dose not given beside the values. The conditions noted are these: mice; for AUC(0-t) / Cmax / Tmax: mouse, oral administration, plasma. Format: in vivo. How it is done:
Compounds 30 and 29 were administered to mice orally. After 6 hours or 24 hours, splenocytes cells were harvested. ITK was evaluated by Western blotting. Plasma concentrations were determined by LC/MS/MS. Plasma samples were protein precipitated by addition of 100 μl of acetonitrile containing 50 ng/ml of internal standard. The resulting mixture was vortexed and centrifuged at 4000 RPM for 5 minutes. An aliquot of the resultant supernatant (75 μl) was added to 75 μl of 0.1% formic acid in water to constitute the final sample for injection. Samples were injected on a Shimadzu Exion LC Binary Gradient AD Pump HLPC system connected to a Sciex QTRAP 6500+ mass spectrometer. Five μl of sample was injected onto a Waters Acquity UPLC BEH C18 column 130A (2.1×30 mm, […]) at 40° C. utilizing a flow rate of 700 μl/minute. Mobile Phase A was 0.1% formic acid in water and mobile phase B was 0.1% formic acid in acetonitrile. A linear gradient of 15-95% B over 1.0 minute was used. The mass spectrometer was operated in positive ion electrospray mode with multiple reaction monitoring for maximum sensitivity. Sciex Analyst software (version 1.6.3) was used for LC/MS/MS instrument control and acquisition. Compound concentration was determined against a standard curve of internal standard versus compound peak area ratio. Noncompartmental PK parameters were determined using Phoenix 32 software (version 8.2.0.4383) from Certara. Plasma concentrations from the LC/MS/MS analyses, dose, route of administration, and desired units were utilized for PK parameter calculations. […] FIG. 3C provides the concentration over time of compound 30 following in vivo oral administration in the 6 hour and 24 hour assays.
Cmax, Tmax and AUClast were all calculated using a WinNonLin Phoenix 64 v 8.2.0.4383. Using non-compartmental analysis, Tmax, Cmax and AUClast were determined as follows:
Tmax—Time of maximum observed concentration. Cmax—Maximum observed concentration, occurring at time Tmax, as defined above. AUClast—Area under the curve from the time of dosing to the time of the last measurable (positive) concentration (Tlast).

The next data set addresses T1, ITK (Homo sapiens, UniProt Q08881).
T1 construct: Compounds provided herein were assayed in vitro with ITK HiBit cell lines; endogenous in cells; host or cells: Molt4 (ATCC CRL-1552 [sic]), monoclonal clone 1C10
T1 sequence (Q08881 1-620): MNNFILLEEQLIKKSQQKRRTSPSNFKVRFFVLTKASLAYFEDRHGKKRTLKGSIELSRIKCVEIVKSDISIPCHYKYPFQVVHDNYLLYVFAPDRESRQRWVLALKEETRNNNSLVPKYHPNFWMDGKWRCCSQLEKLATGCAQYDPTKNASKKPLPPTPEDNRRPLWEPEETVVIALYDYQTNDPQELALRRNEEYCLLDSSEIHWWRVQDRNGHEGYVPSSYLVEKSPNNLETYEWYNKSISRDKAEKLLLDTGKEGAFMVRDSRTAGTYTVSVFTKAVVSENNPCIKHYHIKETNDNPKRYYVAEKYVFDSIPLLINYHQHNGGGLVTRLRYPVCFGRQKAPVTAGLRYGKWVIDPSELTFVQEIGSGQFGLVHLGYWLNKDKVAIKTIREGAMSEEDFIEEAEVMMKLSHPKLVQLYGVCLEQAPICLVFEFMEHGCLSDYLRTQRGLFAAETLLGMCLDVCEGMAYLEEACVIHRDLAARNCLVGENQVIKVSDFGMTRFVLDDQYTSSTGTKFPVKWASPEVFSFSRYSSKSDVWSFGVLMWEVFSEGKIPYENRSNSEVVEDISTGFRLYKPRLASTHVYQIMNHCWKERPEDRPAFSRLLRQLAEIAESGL
As to the kind of experiment: ITK Degradation HiBiT Assay. The data set is classed as cell-based. The procedure:
Compounds provided herein were assayed in vitro with ITK HiBit cell lines. Compound dilution series (11-point, 5 fold dilutions in DMSO, columns 2-12 with replicate in rows A/B, C/D, E/F, G, H at 2000× the final required concentrations were prepared in 96 well plate (Falcon, cat. no. 353077). Column 1, rows A-H were control DMSO. The 2000× solutions ranged from 2 mM to 1.024 nM (final assay concentration range 1 μM to […]). The 2000× solutions were added to cells in […], for a final DMSO concentration of 0.5% and final assay compound concentration of 1×. For the cells, C-terminal HiBiT-tagged Molt4 cells (ATCC CRL-1552, monoclonal cell line clone 1C10) were plated at 1×10^6 cells/mL, 100 μL/well ([…]) in complete RPMI (10% FBS, 1% L-glutamine). The cells were incubated with compound 32 and compound 30 for 4 hrs at 32° C./6% CO2.
Following incubation, 100 μL of complete Nano-Glo HiBiT Lytic Detection Reagent (Nano-Glo HiBiT Lytic Buffer with 1:50 Nano-Glo HiBiT Lytic Substrate and 1:100 LgBiT Protein; Promega cat. no. N3O40) was added. Cells were further incubated for 10 min at room temperature (RT). Luminescence units (LU) were read on an EnVision plate reader (Perkin Elmer, 0.1 sec per well). Percent ITK remaining per sample was calculated as follows: […]
Using Graphpad Prism, % ITK remaining values were plotted as a function of compound concentration. To determine DC50 and Dmax values, resulting curves were fit to the Prism curve-fitting equation “log(inhibitor) vs response−Variable slope (four parameters)” (reported best fit value IC50 used as DC50). ITK was measured with antibody-based MSD (Meso-Scale Discovery) assays shown below.
In general terms: With HiBiT, luminescence reflects the tagged protein that the partner subunit can reach.

[2] abbreviates: MOLT-4, C-terminal HiBiT-tagged Molt4 cells, 4 hrs incubation, read-out: HiBiT DMax (%).

SMILES strings stand for the structures. Where two headings read alike, the source gives them in different places.

Turning to `CN(C(=O)CC1CCN(c2ccc(C3CCC(=O)NC3=O)cn2)CC1)c1ccc2cc(-c3n[nH]c4c3C[C@@H]3C(F)(F)[C@]3(C)C4)[nH]c2c1` (some centres unmarked) [Compound 27], in data set [1], the AUC(0-t) (usually exposure summed from dosing to a finite time, without extrapolation to infinity) stood at 1.69 µM·h; the peak level (Cmax) was 609 nM; the Tmax (as a rule, the time at which the peak concentration occurs) is 1 h.
In the case of `C[C@@H](C(=O)N(C)c1ccc2cc(-c3n[nH]c4c3C[C@@H]3C(F)(F)[C@]3(C)C4)[nH]c2c1)N1CCN(CC2CCN(c3ccc(C4CCC(=O)NC4=O)cn3)CC2)CC1` (stereo partly drawn) [Compound 30, (2S)—N-(2-((4aS,5aR)-5,5-difluoro-5a-methyl-1,4,4a,5,5a,6-hexahydrocyclopropa[f]indazol-3-yl)-1H-indol-6-yl)-2-(4-((1-(5-(2,6-dioxopiperidin-3-yl)pyridin-2-yl)piperidin-4-yl)methyl)piperazin-1-yl)-N-methylpropanamide], the Dmax (as a rule, the greatest extent of degradation seen) at ITK (ITK degradation in HiBiT cell line, FIG. 1, read-out: Dmax values (FIG. 1)) fell in the range of 90 to 100%. The Dmax at ITK (setting [2]) is 85%. For the same molecule, the detection in plasma entry in data set [1] (oral, 6 hour and 24 hour assays) was “detected in plasma through 6 and 24 hours”. Further, in data set [1], the AUC(0-t) amounted to 1.25 µM·h; the Cmax (as a rule, the peak of the concentration-time curve) amounted to 870 nM; the Tmax was 2 h.
Regarding `CC1(C)CCc2c(-c3cc4ccc(C(=O)N5CCN(CC6CCN(c7ccc(C8CCC(=O)NC8=O)nc7)CC6)CC5)cc4[nH]3)n[nH]c2C1` (centres unmarked) [Compound 42, 3-(5-(4-((4-(2-(6,6-dimethyl-4,5,6,7-tetrahydro-1H-indazol-3-yl)-1H-indole-6-carbonyl)piperazin-1-yl)methyl)piperidin-1-yl)pyridin-2-yl)piperidine-2,6-dione], the DC50 (commonly the concentration at which degradation of the target reaches its halfway point) on ITK (C-terminal HiBiT-tagged Molt4 cells, 4 hrs incubation) came out at 3 pM. The Dmax on ITK (setting [2]) stood at 88%. Moreover, in data set [1], the exposure AUC(0-t) came to 28 µM·h, the concentration peaked (Cmax) at 5100 nM and the Tmax was 2 h.

The values are drawn from patent publication US20230158151A1 (NURIX THERAPEUTICS, INC., priority 2021, published 2023).
